Results as given in patent publication US20230270720A1, “MAVOGLURANT, A MGLUR5 ANTAGONIST, FOR USE IN THE TREATMENT IN THE REDUCTION OF OPIOID USE” (Novartis AG, priority 2020, published 2023).

Columns and labels:
morphine tolerant mice = assay: Opiate tolerance test (hot plate) in the mouse; format: in vivo; conditions: for increase of foot-licking latency as compared with animals receiving morphine from Day 1 to Day 6: morphine 32 mg/kg i.p. twice daily Day 1-6; for effect on foot-licking latency: morphine tolerant mice
Sprague-Dawley rats [1] = assay: Remifentanil intravenous self-administration model in Sprague-Dawley rats; format: in vivo, rat; conditions: for rate of lever press (speed of lever pressing): vehicle 0.077±0.031, P>0.05
Sprague-Dawley rats [2] = assay: Cue-induced reinstatement of remifentanil seeking in the rat; format: in vivo
[3] = tested on: rat model of drug dependence; conditions: cited from earlier work
adult CD1 mice = conditions: 20 mg/kg, i.p., cited from earlier work

Structure (SMILES): COC(=O)N1CC[C@@H]2[C@H]1CCC[C@@]2(O)C#Cc1cccc(C)c1 [Compound (I), (−)-(3aR,4S,7aR)-4-Hydroxy-4-m-tolylethynyl-octahydro-indole-1-carboxylic acid methyl ester]
- increase of foot-licking latency as compared with animals receiving morphine from Day 1 to Day 6 (morphine tolerant mice; 1 mg/kg p.o. 60 minutes before the test on Day 7, p<0.01): +44%
- effect on foot-licking latency (morphine tolerant mice; 3 mg/kg p.o. 60 minutes before the test on Day 7): no significant effects
- effect on foot-licking latency (morphine tolerant mice; 10 mg/kg p.o. 60 minutes before the test on Day 7): no significant effects
- average number of remifentanil infusions (Sprague-Dawley rats [1]; 3 mg/kg p.o. 30 min before one remifentanil 3.2 μg/kg/infusion session): did not significantly affect
- rate of lever press (speed of lever pressing) (Sprague-Dawley rats [1]; 3 mg/kg p.o. 30 min before session): 0.048±0.019 responses/second/session
- average number of remifentanil infusions (Sprague-Dawley rats [1]; 10 mg/kg p.o. 30 min before one remifentanil 3.2 μg/kg/infusion session): did not significantly affect
- rate of lever press (speed of lever pressing) (Sprague-Dawley rats [1]; 10 mg/kg p.o. 30 min before session): 0.035±0.010 responses/second/session
- average number of remifentanil infusions (Sprague-Dawley rats [1]; 30 mg/kg p.o. 30 min before one remifentanil 3.2 μg/kg/infusion session): did not significantly affect
- rate of lever press (speed of lever pressing) (Sprague-Dawley rats [1]; 30 mg/kg p.o. 30 min before session): 0.026±0.007 responses/second/session
- effect on cue-induced reinstatement (lever presses) (Sprague-Dawley rats [2]; 3 mg/kg p.o. 30 minutes before the cue reinstatement session): No significant effect
- number of active lever presses as compared with vehicle condition (Sprague-Dawley rats [2]; 10 mg/kg p.o. 30 minutes before the cue reinstatement session, p<0.01): significantly decreased
- number of inactive lever presses as compared with vehicle (Sprague-Dawley rats [2]; 10 mg/kg p.o. 30 minutes before the cue reinstatement session, p<0.05): significantly decreased

Structure (SMILES): Cc1cccc(C#Cc2ccccc2)n1 [Compound (III), 2-Methyl-6-(phenylethynyl)-pyridine, reference compound]
- increase of foot-licking latency as compared with animals receiving morphine from Day 1 to Day 6 (morphine tolerant mice; 10 mg/kg p.o. 60 minutes before the test on Day 7, p<0.05): +32%
- rate of lever press (Sprague-Dawley rats [1]; rat, in vivo): 0.039±0.011 responses per second
- number of active lever presses as compared with vehicle condition (Sprague-Dawley rats [2]; rat, in vivo): significantly decreased
- number of inactive lever presses as compared with vehicle (Sprague-Dawley rats [2]; rat, in vivo): did not significantly affect
- reduction of the self-administration (SA) of ketamine ([3]; dose dependently): 75%
- reduction of the self-administration (SA) of heroin ([3]; modestly): 20%

Structure (SMILES): Cc1nc(C#Cc2cccnc2)cs1 [MTEP, 3-[(2-methyl-1,3-thiazol-4-yl)ethynyl]pyridine]
- operant responding for morphine (adult CD1 mice; morphine 0.1 mg/kg/infusion): attenuated
- cue-induced morphine-seeking after a period of forced abstinence (adult CD1 mice): attenuated
